In article PMC9706574, “A Versatile and Sustainable Multicomponent Platform for the Synthesis of Protein Degraders: Proof-of-Concept Application to BRD4-Degrading PROTACs” (Journal of Medicinal Chemistry, 2022):
Converted amounts (≈) assume the structure as drawn. Marks after values point to notes of the source that are not given here. Where a SMILES comes first, the peptide text is derived from it. [ ]: non-standard residue; d: D form. The star is where a group is joined. JQ1acid = Cc1sc2c(c1C)C(c1ccc(Cl)cc1)=N[C@@H](CC(=O)*)c1nnc(C)n1-2; NHBn(4-(4-Me-thiazol-5-yl)) = Cc1ncsc1-c1ccc(CN*)cc1; Hyp = O=C(O)[C@@H]1C[C@@H](O)CN1; Tle = CC(C)(C)[C@H](N)C(=O)O; Sar = CNCC(=O)O

Tests used:
BRD4 = target: T1, BRD4 (Homo sapiens, UniProt O60885); experiment: BRD4 degradation by Western blot analysis in MDA-MB-231 cells; assay type: cell-based; conditions: for dose-response of BRD4 degradation (in words): 100 nM to 10 μM; for effect of cotreatment with proteasome inhibitor bortezomib on BRD4 degradation: 1 μM compound + 5 nM bortezomib; for BRD4 degradation in time-course experiments (in words) / Densitometry (% of control), BRD4-immunoreactive band relative to DMSO vehicle: 1 μM; for BRD4 degradation in time-course experiments (in words): 4 up to 24 h
T1 construct: endogenous in cells; host or cells: MDA-MB-231
Protocol: In Vitro Biological Validation of PROTACs and Preliminary Assessment of Thermodynamic Aqueous Solubility and Metabolic Stability of Selected BRD4-Degrading PROTACs. With the aim of proving the utility of our platform and the compatibility of the substructures accessible by the MCR strategy with a proximity-based degradation, the ability of our PROTAC candidates to effectively act as BRD4 degraders was tested in the human breast cancer cell line MDA-MB-231, known to express detectable levels of this protein.
The human breast adenocarcinoma MDA-MB-231 cell line was cultured in DMEM (Sigma-Aldrich) supplemented with 10% fetal bovine serum (FBS), 1% glutamine, and 1% penicillin/streptomycin. For Western blot analysis, […] cells/well were plated into 12-well plates containing DMEM complete growth medium, to be treated with the synthesized compounds, at the indicated concentrations, for different time lengths. After treatments, cells were scraped and lysed to obtain protein extract using RIPA lysis buffer supplemented with protease (PIC, Merck-Millipore) and phosphatase inhibitors (NaF 1 M, Na3VO4 1 M, PMSF […], Sigma-Aldrich). Cells lysates were centrifuged at 13 000 rpm for 10 min at 4 °C to remove membranes and insoluble fractions. Protein quantification of the supernatant fraction was performed with Braford protein assay (Sigma-Aldrich). […] aliquots of protein extracts were used for 12% SDS-PAGE. After transfer into nitrocellulose membranes, BRD4 and tubulin protein levels were evaluated by immunoblotting using a rabbit polyclonal anti-BRD4 (Bethyl Laboratories) and a mouse monoclonal α-tubulin (Sigma-Aldrich) IgG as primary antibodies and an antirabbit or antimouse HRP-conjugated secondary antibody (Bio-Rad Laboratories). Protein levels were detected by chemiluminescent conversion of the HRP substrate LumiGLO (Thermo Fisher Scientific) using the ChemiDoc imaging system (Bio-Rad). Band densitometry was assessed, normalized to α-tubulin immunoreactive bands, and reported as percentage of the 0.3% DMSO control lane.

[1] = Thermodynamic aqueous solubility; assay type: physicochemical; conditions: 2 h
Protocol: Saturated solutions were prepared by dissolving the tested compounds in 0.1 M phosphate-buffered saline (pH = 7.4) or 0.01 N HCl solutions and sonicated for 30 s. After equilibration on an orbital shaker at 25 °C for 2 h, the solutions were centrifuged at 13 000 rpm for 5 min and filtered through a 0.2 μm regenerated cellulose (RC) syringe filter. A 400 μL aliquot of each filtrate was diluted with 100 μL of acetonitrile and analyzed by LC-UV. When the measured peak area was out of the calibration range (5–100 μM), the sample was further diluted in water–acetonitrile 1:1 mixture.

[2] = parameters: method as in PMID 28378579; conditions: cited from earlier work
[3] = 8 h treatment, MDA-MB-231 cells, from Western blot densitometry
[4] = 0.01 N HCl solution, HCl 0.01 N, pH 2.0, 25 °C
[5] = phosphate-buffered saline, PBS 0.1 M, pH 7.4, 25 °C

SMILES	dose-response of BRD4 degradation (in words) (BRD4; 8 h, MDA-MB-231 cells)	effect of cotreatment with proteasome inhibitor bortezomib on BRD4 degradation (BRD4; 8 h)	BRD4 degradation in time-course experiments (in words) (BRD4; MDA-MB-231 cells)	DC50 (BRD4; [3]) [nM]	solubility thermodynamic at 2 h [1, 4] [µM]	solubility thermodynamic at 2 h [1, 5] [µM]	melting point	Densitometry (% of control), BRD4-immunoreactive band relative to DMSO vehicle (BRD4; 4 h, MDA-MB-231 cells)	Densitometry (% of control), BRD4-immunoreactive band relative to DMSO vehicle (BRD4; 8 h, MDA-MB-231 cells)	other results
Cc1sc2c(c1C)C(c1ccc(Cl)cc1)=N[C@@H](CC(=O)NCC(=O)NCCCOc1cccc3c1C(=O)N(C1CCC(=O)NC1=O)C3=O)c1nnc(C)n1-2 (stereo partly drawn) [Compound 27, 2-((S)-4-(4-Chlorophenyl)-2,3,9-trimethyl-6H-thieno[3,2-f][1,2,4]triazolo[4,3-a][1,4]diazepin-6-yl)-N-(2-((3-((2-(2,6-dioxopiperidin-3-yl)-1,3-dioxoisoindolin-4-yl)oxy)propyl)amino)-2-oxoethyl)acetamide]	showed dose-dependency	abolish BRD4 degradation	decreased expression of BRD4 at all the time-points tested	97.1	145 (≈ 112 µg/mL)	48 (≈ 37 µg/mL)	221.3 to 223.6 °C (dec.)	–	–	Dmax (BRD4; 8 h treatment, MDA-MB-231 cells, from Western blot densitometry, read-out: Dmax (maximal % of reduction toward DMSO control lane)): 88%
Cc1sc2c(c1C)C(c1ccc(Cl)cc1)=N[C@@H](CC(=O)NCC(=O)NCCCCOc1cccc3c1C(=O)N(C1CCC(=O)NC1=O)C3=O)c1nnc(C)n1-2 (stereo partly drawn) [Compound 28, 2-((S)-4-(4-Chlorophenyl)-2,3,9-trimethyl-6H-thieno[3,2-f][1,2,4]triazolo[4,3-a][1,4]diazepin-6-yl)-N-(2-((4-((2-(2,6-dioxopiperidin-3-yl)-1,3-dioxoisoindolin-4-yl)oxy)butyl)amino)-2-oxoethyl)acetamide]	–	–	–	–	48 (≈ 37.7 µg/mL)	17 (≈ 13.3 µg/mL)	231.9 to 232.6 °C (dec.)	–	–	–
Cc1sc2c(c1C)C(c1ccc(Cl)cc1)=N[C@@H](CC(=O)NCC(=O)NCCCCCOc1cccc3c1C(=O)N(C1CCC(=O)NC1=O)C3=O)c1nnc(C)n1-2 (stereo partly drawn) [Compound 29, 2-((S)-4-(4-Chlorophenyl)-2,3,9-trimethyl-6H-thieno[3,2-f][1,2,4]triazolo[4,3-a][1,4]diazepin-6-yl)-N-(2-((5-((2-(2,6-dioxopiperidin-3-yl)-1,3-dioxoisoindolin-4-yl)oxy)pentyl)amino)-2-oxoethyl)acetamide]	degradation was observed only at 1 and 3 μM concentrations	abolish BRD4 degradation	decreased expression of BRD4 at all the time-points tested	184	39 (≈ 31.2 µg/mL)	15 (≈ 12 µg/mL)	223.4 to 225.1 °C (dec.)	–	–	–
Cc1sc2c(c1C)C(c1ccc(Cl)cc1)=N[C@@H](CC(=O)N1CCN(CC(=O)NCCCCCOc3cccc4c3C(=O)N(C3CCC(=O)NC3=O)C4=O)CC1)c1nnc(C)n1-2 (stereo partly drawn) [Compound 34, 2-(4-(2-((S)-4-(4-Chlorophenyl)-2,3,9-trimethyl-6H-thieno[3,2-f][1,2,4]triazolo[4,3-a][1,4]diazepin-6-yl)acetyl)piperazin-1-yl)-N-(5-((2-(2,6-dioxopiperidin-3-yl)-1,3-dioxoisoindolin-4-yl)oxy)pentyl)acetamide]	showed the well-known “hook effect”	abolish BRD4 degradation	decreased expression of BRD4 at all the time-points tested	60	5070 (≈ 4410 µg/mL)	11 (≈ 9.55 µg/mL)	194.8 to 196.8 °C (dec.)	–	–	concentration of maximal BRD4 degradation (BRD4; dose-response 100 nM to 10 μM, 8 h, MDA-MB-231 cells): 300 nM
Cc1sc2c(c1C)C(c1ccc(Cl)cc1)=N[C@@H](CC(=O)N1CCN(CC(=O)NCCOCCOc3cccc4c3C(=O)N(C3CCC(=O)NC3=O)C4=O)CC1)c1nnc(C)n1-2 (stereo partly drawn) [Compound 35, 2-(4-(2-((S)-4-(4-Chlorophenyl)-2,3,9-trimethyl-6H-thieno[3,2-f][1,2,4]triazolo[4,3-a][1,4]diazepin-6-yl)acetyl)piperazin-1-yl)-N-(2-(2-((2-(2,6-dioxopiperidin-3-yl)-1,3-dioxoisoindolin-4-yl)oxy)ethoxy)ethyl)acetamide]	–	–	–	–	–	–	173.8 to 174.5 °C (dec.)	107,8 % of control	40,1 % of control	Densitometry (% of control), BRD4-immunoreactive band relative to DMSO vehicle (BRD4; 16 h, MDA-MB-231 cells): 39,2 % of control; Densitometry (% of control), BRD4-immunoreactive band relative to DMSO vehicle (BRD4; 24 h, MDA-MB-231 cells): 72,1 % of control
Cc1sc2c(c1C)C(c1ccc(Cl)cc1)=N[C@@H](CC(=O)N1CCN(CC(=O)NCCOCCOCCOc3cccc4c3C(=O)N(C3CCC(=O)NC3=O)C4=O)CC1)c1nnc(C)n1-2 (stereo partly drawn) [Compound 36, 2-(4-(2-((S)-4-(4-Chlorophenyl)-2,3,9-trimethyl-6H-thieno[3,2-f][1,2,4]triazolo[4,3-a][1,4]diazepin-6-yl)acetyl)piperazin-1-yl)-N-(2-(2-(2-((2-(2,6-dioxopiperidin-3-yl)-1,3-dioxoisoindolin-4-yl)oxy)ethoxy)ethoxy)ethyl)acetamide]	–	–	–	–	–	–	194.5 to 195.8 °C (dec.)	110,8 % of control	54,7 % of control	Densitometry (% of control), BRD4-immunoreactive band relative to DMSO vehicle (BRD4; 16 h, MDA-MB-231 cells): 41,4 % of control; Densitometry (% of control), BRD4-immunoreactive band relative to DMSO vehicle (BRD4; 24 h, MDA-MB-231 cells): 64,7 % of control
Cc1ncsc1-c1ccc(CNC(=O)[C@@H]2C[C@@H](O)CN2C(=O)[C@@H](NC(=O)CNC(=O)CN(C)C(=O)C[C@@H]2N=C(c3ccc(Cl)cc3)c3c(sc(C)c3C)-n3c(C)nnc32)C(C)(C)C)cc1 [Compound 45, (2S,4R)-1-((S)-2-(2-(2-(2-((S)-4-(4-Chlorophenyl)-2,3,9-trimethyl-6H-thieno[3,2-f][1,2,4]triazolo[4,3-a][1,4]diazepin-6-yl)-N-methylacetamido)acetamido)acetamido)-3,3-dimethylbutanoyl)-4-hydroxy-N-(4-(4-methylthiazol-5-yl)benzyl)pyrrolidine-2-carboxamide] (JQ1acid-[Sar]G[Tle][Hyp]-{NHBn(4-(4-Me-thiazol-5-yl))})	–	–	–	–	–	–	114.6 to 116 °C	41,6 % of control	107,9 % of control	–
Cc1ncsc1-c1ccc(CNC(=O)[C@@H]2C[C@@H](O)CN2C(=O)[C@@H](NC(=O)CNC(=O)CN2CCN(C(=O)C[C@@H]3N=C(c4ccc(Cl)cc4)c4c(sc(C)c4C)-n4c(C)nnc43)CC2)C(C)(C)C)cc1 [Compound 46, (2S,4R)-1-((S)-2-(2-(2-(4-(2-((S)-4-(4-Chlorophenyl)-2,3,9-trimethyl-6H-thieno[3,2-f][1,2,4]triazolo[4,3-a][1,4]diazepin-6-yl)acetyl)piperazin-1-yl)acetamido)acetamido)-3,3-dimethylbutanoyl)-4-hydroxy-N-(4-(4-methylthiazol-5-yl)benzyl)pyrrolidine-2-carboxamide]	–	–	–	–	–	–	183.3 to 184.8 °C	61,7 % of control	135 % of control	–
Cc1ncsc1-c1ccc(CNC(=O)[C@@H]2C[C@@H](O)CN2C(=O)[C@@H](NC(=O)CCCNC(=O)CN2CCN(C(=O)C[C@@H]3N=C(c4ccc(Cl)cc4)c4c(sc(C)c4C)-n4c(C)nnc43)CC2)C(C)(C)C)cc1 [Compound 47, (2S,4R)-1-((S)-2-(4-(2-(4-(2-((S)-4-(4-Chlorophenyl)-2,3,9-trimethyl-6H-thieno[3,2-f][1,2,4]triazolo[4,3-a][1,4]diazepin-6-yl)acetyl)piperazin-1-yl)acetamido)butanamido)-3,3-dimethylbutanoyl)-4-hydroxy-N-(4-(4-methylthiazol-5-yl)benzyl)pyrrolidine-2-carboxamide]	–	–	–	–	–	–	164.3 to 165.5 °C	50 % of control	65,6 % of control	–
Cc1sc2c(c1C)C(c1ccc(Cl)cc1)=N[C@@H](CC(=O)NCCCCNC(=O)COc1cccc3c1C(=O)N(C1CCC(=O)NC1=O)C3=O)c1nnc(C)n1-2 (some centres unmarked) [dBET1]	–	–	–	–	–	–	–	–	–	Thermodynamic aqueous solubility, HCl 0.01 N (pH = 2.0) ([2]; pH 2.0, literature data ref 58): 171 ^c μM; Thermodynamic aqueous solubility, PBS 0.1 M (pH = 7.4) ([2]; pH 7.4, literature data ref 58): 60 ^c μM
